What was measured:
G6PD [1] = target: T1, G6PD (Homo sapiens, UniProt P11413); assay: G6PD enzymatic activity by LC-MS (6-pg production); type: biochemical; set-up: Partially truncated human G6PD (residues 28-515, Uniprot ID P11413); His6 with thrombin cleavage site (N, cleaved yes); made in house; host or cells: Escherichia coli BL21(DE3)pLysS; conditions: orthogonal LC-MS assay
Procedure: Aliquots of reaction mixture were collected at indicated time points and rapidly quenched by diluting (1:5) into methanol precooled on dry ice. The mixtures were centrifuged at 13,000 rcf for 20 minutes at 4° C., and the resulting supernatants were diluted (1:20) into 40:40:20 methanol/ acetonitrile/ water and analyzed by LC-MS.
Target sequence in this assay (P11413 28-515): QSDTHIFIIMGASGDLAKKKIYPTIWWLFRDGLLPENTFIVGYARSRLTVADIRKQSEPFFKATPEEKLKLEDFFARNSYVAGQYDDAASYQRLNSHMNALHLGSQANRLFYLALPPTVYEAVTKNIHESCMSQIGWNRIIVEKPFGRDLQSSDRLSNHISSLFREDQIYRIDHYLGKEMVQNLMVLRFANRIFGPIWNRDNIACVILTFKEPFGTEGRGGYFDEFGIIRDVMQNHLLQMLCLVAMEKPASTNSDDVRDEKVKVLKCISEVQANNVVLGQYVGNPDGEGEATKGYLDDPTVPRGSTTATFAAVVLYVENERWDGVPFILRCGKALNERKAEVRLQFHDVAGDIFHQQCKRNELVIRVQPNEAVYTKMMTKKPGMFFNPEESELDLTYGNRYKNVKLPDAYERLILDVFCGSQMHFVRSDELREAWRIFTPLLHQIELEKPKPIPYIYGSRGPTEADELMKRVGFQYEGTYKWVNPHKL

mouse neutrophils = assay: Neutrophil oxidative burst assay (mouse); type: cell-based; conditions: PMA, 50 µM
Procedure: Murine neutrophils were isolated from 8-12-week old C56BL/6 mice. Mice were bred and maintained according to the University of Wisconsin Institutional Animal Care and Use Committee (Protocol No. M006219). Mice were euthanized by cervical dislocation, and bone marrow cells were harvested from femur and tibia within 30 minutes. Cell suspensions were passed through a 70-µm cell strainer. Neutrophils were prepared using a negative selection kit (EasySep Mouse Neutrophil Enrichment Kit, Stem Cell Technologies), following the manufacturer’s instructions. Cells were cultured in RPMI 1640 media supplemented with 10% heat-inactivated FBS, 100 U/ml penicillin, 100 µg/ml streptomycin, 5 mM HEPES, and 2 mM EDTA. To stimulate neutrophils, 100 nM phorbol 12-myristate 13-acetate (PMA) (Cayman Chemical) was added to the media; metabolites were extracted after 30 minutes of stimulation.
Suspended neutrophils were plated in culture wells pre-coated with CELL-TAK™ (Corning), spun at 200 × g for 1 minute with minimal acceleration/deceleration, and then incubated for 1 hour at 37° C. Murine neutrophils were plated at 2×10^5 cells/well in RPMI 1640 media without sodium bicarbonate. […] Oxidative burst was stimulated with PMA (100 nM, Cayman Chemical); oxygen consumption rate was measured using the XF-96e extracellular flux analyzer (Seahorse Bioscience).

G6PD [2] = target: T1, G6PD; assay: 6-pg levels in HepG2 cells (cellular target engagement); type: cell-based; set-up: endogenous in cells; conditions: HepG2 cells; read-out: IC50, decrease in 6-pg levels
Text: Direct Monitoring of 6-pg in cells. The metabolite 6-phosphogluconate (6-pg) is a downstream product of the G6PD reaction, and is believed to be made predominantly by the oxidative pentose phosphate pathway in mammalian cells. Though the direct product of G6PD is the lactone form of 6-pg (6-phosphogluconolactone), this product is believed to readily hydrolyze to 6-pg under cellular conditions, and is therefore difficult to detect. Thus, to directly monitor the G6PD reaction, methods for measuring 6-pg levels in intact cells were developed.
To explore this possibility further, more specific assays for evaluating G6PD cellular target engagement were developed. […] These included the hepatocellular carcinoma line, HepG2, which was selected as the primary cell for direct 6-pg monitoring. Consistent with the oxPPP being the primary source of 6-pg in these cells, G6PD knockout led to nearly complete 6-pg loss (FIGS. 1B and 1C).
For analysis of intracellular metabolites by LC-MS, adherent cell lines were plated and grown to 80% confluency in 6-well plates. At the start of an experiment, the appropriate media was added to cells, which included isotope tracers and/or chemical inhibitors as described. Cells were incubated at 37° C. at 5% CO2 for 2 hours (unless otherwise noted). For all experiments involving small molecule agents, DMSO concentrations were <0.2%. After 2 hours, media was removed by aspiration and metabolome extraction was performed (without any wash steps) by the addition of 800 µL of ice cold solvent (40:40:20 acetonitrile:methanol:water + 0.5% formic acid). After a 1-minute incubation on ice, the extract was neutralized by the addition of NH4HCO3 (15% w/v). The samples were incubated at -20° C. for approximately 30 minutes, at which point the wells were scraped and the extract transferred to Eppendorf tubes and centrifuged (15 minutes, 16000 rpm, 4° C.). The resulting supernatant was frozen on dry ice and kept at -80° C. until LC-MS analysis.
Metabolites were analyzed using a quadrupole-orbitrap mass spectrometer (Q Exactive Plus, Thermo Fisher Scientific, Waltham, MA), coupled to hydrophilic interaction chromatography (HILIC) with LC separation on a XBridge BEH Amide column (Waters), or a stand-alone orbitrap (Thermo-Fisher Exactive) coupled to reversed-phase ion-pairing chromatography with LC separation on a HSS-T3 column (Waters). Both mass spectrometers were operating in negative ion mode and were coupled to their respective liquid chromatography methods via electrospray-ionization. Detailed analytical conditions have been previously described.
Target sequence in this assay (P11413 whole entry, the tested form may be a part): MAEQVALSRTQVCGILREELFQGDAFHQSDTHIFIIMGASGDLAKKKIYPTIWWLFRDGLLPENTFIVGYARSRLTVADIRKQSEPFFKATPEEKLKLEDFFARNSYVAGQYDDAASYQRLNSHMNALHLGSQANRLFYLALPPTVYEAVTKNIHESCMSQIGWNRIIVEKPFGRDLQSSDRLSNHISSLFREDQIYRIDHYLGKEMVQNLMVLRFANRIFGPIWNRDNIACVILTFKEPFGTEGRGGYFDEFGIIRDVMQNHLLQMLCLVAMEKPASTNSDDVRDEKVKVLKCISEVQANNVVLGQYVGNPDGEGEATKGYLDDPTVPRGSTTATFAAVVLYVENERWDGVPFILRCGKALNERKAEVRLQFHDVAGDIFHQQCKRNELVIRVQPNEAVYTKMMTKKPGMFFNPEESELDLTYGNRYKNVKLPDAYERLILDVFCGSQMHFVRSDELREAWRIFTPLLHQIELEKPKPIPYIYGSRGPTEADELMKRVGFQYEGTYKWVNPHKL

N#Cc1cc(Nc2ncc3c(n2)CCCCC3=O)cs1 [Compound 2, 4-([5-oxo-6H,7H,8H,9H-cyclohepta[d]pyrimidin-2-yl]amino)thiophene-2-carbonitrile]
6-pg production by recombinant human G6PD (G6PD [1]): demonstrated in vitro inhibition of G6PD activity | oxidative burst (oxygen consumption rate) (mouse neutrophils): decreased oxidative burst | IC50 (G6PD [2]): ~13 µM

Reference: patent US20230348401A1, “Inhibitors of Glucose-6-phosphate Dehydrogenase and Uses Thereof” (The Trustees of Princeton University, priority 2020, published 2023)
